# Data published in paper PMC6787163, “Systematic Dual Targeting of Dendritic Cell C-Type Lectin Receptor DC-SIGN and TLR7 Using a Trifunctional Mannosylated Antigen” (Frontiers in Chemistry, 2019).
# What was measured:
# DC-SIGN on moDC = test: Binding of biotinylated mannoside library to moDCs by flow cytometry; format: cell-based, human; details: 10 μM biotinylated cluster, 30 min at 4°C, streptavidin staining
# Procedure: Next, we assessed the binding of our clusters to cellular DC-SIGN using moDCs (Figure 3B, Supplementary Figure 1B). To this end, binding of the clusters a1–a6, b1–b6, c1–c6, d1–d6, and e1–e6, decorated with a biotin handle, was determined by flow cytometry. Clusters were bound to moDCs for 30 min at 4°C. By staining using fluorophore-conjugated streptavidin and washing at 4°C, the bound clusters could be quantified by flow cytometry. […] In control experiments ligand binding to DC-SIGN was inhibited using a blocking anti-DC-SIGN antibody (Supplementary Figure 1C).
# Approximately 10^5 day 5 moDCs were washed and resuspended in 100 μL culture medium (pre-cooled to 4°C). 20 μg/mL AZN-D1 (anti-DC-SIGN, in house Geijtenbeek et al., [2002]) or purified mouse anti-human CD206 antibody (Clone 19.2, BD Bioscience) was added to the moDCs and pre-incubated for 45 min on ice. Subsequently, 10 μM of the biotinylated mannoside clusters or 1 μg/mL of Lewis^Y-conjugated polyacrylamide (positive control) was added, and incubated for 30 min at 4°C. Cells were then washed with pre-cooled PBS (4°C), and stained with Alexa647-labeled streptavidin (Invitrogen^TM) in PBS supplemented with 0.5% BSA and 0.02% NaN3 (PBA) for 30 min at 4°C. Upon washing in ice-cold PBA and fixation in PBS with 0.5% PFA, the fluorescence was measured by flow cytometry (CyAn™ ADP with Summit™ Software), and further analyzed using FlowJo v10.
# DC-SIGN S-ECD = target: T1, DC-SIGN S-ECD (Homo sapiens, UniProt Q9NNX6); test: SPR direct interaction assay on oriented DC-SIGN S-ECD surface; format: binding; details: SPR direct interaction, oriented tetrameric DC-SIGN ECD surface, apparent Kd; read-out: Kdapp
# T1 construct: The ECD of DC-SIGN (residues 66–404) was overexpressed and purified as previously described; made in house
# T1 sequence (Q9NNX6 66-404): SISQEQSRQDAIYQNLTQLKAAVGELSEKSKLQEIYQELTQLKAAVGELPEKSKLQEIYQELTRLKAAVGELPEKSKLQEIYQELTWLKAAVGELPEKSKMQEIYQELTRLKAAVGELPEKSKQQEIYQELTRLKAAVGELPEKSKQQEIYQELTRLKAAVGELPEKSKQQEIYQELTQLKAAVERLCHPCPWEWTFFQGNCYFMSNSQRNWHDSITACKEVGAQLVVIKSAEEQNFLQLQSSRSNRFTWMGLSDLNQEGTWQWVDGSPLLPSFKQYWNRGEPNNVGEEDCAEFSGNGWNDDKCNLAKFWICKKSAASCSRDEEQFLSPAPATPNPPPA
# Procedure: (§1) The affinity of the clusters for the extracellular domain (ECD) of the DC-SIGN receptor (DC-SIGN ECD) was estimated via surface plasmon resonance (SPR) assays (Tabarani et al., [2009]). The apparent Kd was calculated in direct interaction mode using a surface functionalized in an oriented manner with DC-SIGN ECD. In this assay, tetrameric DC-SIGN ECD is attached to the surface of the sensor chip via the N-terminus of its neck oligomerization domain, thus presenting its four carbohydrate recognition domains toward the solvent, realistically mimicking the presentation of the receptor on cell surface (Porkolab et al., [2019]). For some of the low affinity ligands, in the mM range, it was not possible to determine their affinity with this assay, and therefore a competition experiment was performed providing IC50 values (Timpano et al., [2008]) (Figure 3A). […] When comparing equivalent clusters, the α1,2-di-mannoside (B series) bound with the highest affinity (Figure 3A). […] A potential explanation for this effect could be that the spacing of clusters is more important for the larger tri-mannosides.
# The direct interaction experiments were executed on a T200 Biacore with a CM3 series S sensor chip. Contrary to the competition assay described above, in this test, DC-SIGN ECD used harbors a StreptagII in its N-terminus (DC-SIGN S-ECD) to allow its capture and functionalization onto the surface in an oriented manner. Flow cells were functionalized as previously described (Porkolab et al., [2019]). Briefly, after EDC/NHS activation, flow cells were functionalized with streptactin protein in a first step. Flow cell 1 was used as control, while other flow cells were, in a second round of activation, functionalized with 100 μg/mL of a DC-SIGN S-ECD up to a final density ranging between 2,500 and 3,000 RU, via tag specific capture and linkage by amine coupling chemistry simultaneously. The compounds were injected in running buffer of 25 mM Tris pH 8, 150 mM NaCl, 4 mM CaCl2, 0.05% Tween 20 onto the surface at increasing concentrations with a flow rate of 30 μL/min. The ligand titration led to the determination of an apparent Kd value. The data was analyzed in BIAcore BIAevaluation software for direct interaction 1:1 calculation assuming that the Kd will reflect the affinity of the ligands (glycoclusters) for the DC-SIGN oriented surface used as a whole.
# moDCs = test: Internalization of biotinylated hexavalent clusters by moDCs (flow cytometry); format: cell-based, human
# Procedure: For the internalization, the moDCs were incubated with clusters b6, c6, d6, and e6 for 1 h at 4°C, where after unbound ligands were washed away with ice-cold medium. Warm medium was added to the moDCs, and samples were taken at the indicated time points and put on ice. Upon staining the moDCs with fluorophore-conjugated streptavidin, we could measure the signal loss of the membrane via flow cytometry. To exclude ligand-receptor dissociation before internalization, the moDCs were fixed under gentle conditions, hereby inhibiting receptor-mediated endocytosis. On fixed moDCs the clusters remained at the surface, as no signal loss could be detected (Supplementary Figure 1D). […] The di-mannoside clusters (b6, c6, and d6) were internalized relatively fast, with a 50% uptake within 5 min (Figure 5B). The tri-mannoside cluster e6 however remained longer at the membrane surface and only a 25% uptake was seen after 30 min. Similar results were seen using a pH-sensitive fluorophore. In acidic environments, such as the endosomes and lysosomes, the fluorescence of this dye increases. Pre-complexed clusters mirrored the accelerated uptake of the di-mannoside clusters over the e6 cluster (Supplementary Figure 1E). Although the DC-SIGN mediated uptake mechanism is known (Cambi et al., [2009]), the initiation trigger for endocytosis upon DC-SIGN-ligand binding remains unclear. Recognition of the di-mannoside clusters could induce signaling leading to accelerated uptake, whereas the tri-mannoside cluster could trigger a different signaling pathway. Nonetheless, the clusters harboring the smaller mannosides are preferred. Although the binding affinity of the clusters ranged from 0.9 to 6.6 μM, the di-mannosides induce more rapid DC-SIGN internalization over the tri-mannosides, and can thus increase intracellular peptide concentrations more efficiently for further antigen processing and presentation.
# Immature day 5 moDCs were harvested and washed with cold HBSS (Thermo Fischer), after which half of the moDCs were gently fixed for 20 min at RT with 1% PFA in PBS. Afterwards, 20 μM of the different biotinylated mannose-clusters in cold HBSS were added. The moDCs were incubated for 1 h on ice, and washed in cold HBSS. Subsequently, warm HBSS was added to the cells, and cells were incubated at 37°C in a shaking heating block. At the indicated time points, a sample of the cells was taken and put on ice. After the last time point, the cells were stained with Streptavidin-Alexa647 (Thermo Fisher), measured using flow cytometry (CyAn™ ADP with Summit™ Software), and further analyzed using FlowJo v10. The same procedure was used for internalization with pHrodo^TM Red Avidin (Thermo Fischer). The different biotinylated mannose-clusters were however incubated with pHrodo-Avidin (ratio 2:1) for 15 min at 37°C, prior to moDC exposure. The fluorescence upon internalization was measured using flow cytometry (BD LSRFortessa™ X-20 with FACSDiva Software), and further analyzed using FlowJo v10.
# DC-SIGN ECD = target: T2, DC-SIGN ECD (Homo sapiens, UniProt Q9NNX6); test: SPR competition (inhibition) assay, DC-SIGN ECD on BSA-mannotriose surface; format: binding; details: DC-SIGN ECD 20 μM
# T2 construct: The ECD of DC-SIGN (residues 66–404) was overexpressed and purified as previously described; made in house
# T2 sequence (Q9NNX6 66-404): T1 sequence (Q9NNX6 66-404)
# Procedure: as §1
# The ECD of DC-SIGN (residues 66–404) was overexpressed and purified as previously described (Tabarani et al., [2009]). The DC-SIGN S-ECD construct used for direct interaction experiment (see below) has been overexpressed and purified as described elsewhere (Porkolab et al., [2019]). The SPR competition experiments were performed on a BIAcore T200 using a CM3 series S sensor chip. Flow cells were activated as previously described (Halary et al., [2002]). Flow cell 1 was functionalized with BSA, blocked with ethanolamine and subsequently used as a control surface. Flow cells 2 and 3 were treated with BSA-Man α1-3[Manα1-6]Man (Dextra) (60 μg/mL) in 10 mM NaOAc pH 4 and blocked with ethanolamine. The final densities on flow cells 2 and 3 were about 2,100 RU. The affinities of the various compounds for DC-SIGN ECD were evaluated via an established inhibition assay (Andreini et al., [2011]) in which DCSIGN ECD was injected at 20 μM alone or in the presence of increasing concentration of inhibitors. Injections were performed at 5 μL/min using 25 mM Tris-HCl pH 8, 150 mM NaCl, 4 mM CaCl2, 0.05% P20 surfactant as running buffer. The surface was regenerated by the injection of 50 mM EDTA. The data was analyzed in BIAcore BIAevaluation software using four parameter equation.
SMILES,binding to DC-SIGN on moDC (DC-SIGN on moDC),Kd (DC-SIGN S-ECD) [µM],"internalization by moDCs (loss of surface streptavidin signal) (moDCs; 20 μM cluster, live moDCs)",internalization by moDCs (pHrodo-avidin fluorescence increase) (moDCs; clusters pre-complexed with pH-sensitive dye),"uptake by immature moDCs (moDCs; within 5 min at 37°C, 20 μM cluster) [%]",IC50 (DC-SIGN ECD) [µM]
CC(=O)N[C@@H](CCCCn1cc(CO[C@H]2O[C@H](CO[C@H]3O[C@H](CO)[C@@H](O)[C@H](O)[C@@H]3O)[C@@H](O)[C@H](O)[C@@H]2O)nn1)C(=O)N[C@@H](CCCCn1cc(CO[C@H]2O[C@H](CO[C@H]3O[C@H](CO)[C@@H](O)[C@H](O)[C@@H]3O)[C@@H](O)[C@H](O)[C@@H]2O)nn1)C(=O)N[C@@H](CCCCn1cc(CO[C@H]2O[C@H](CO[C@H]3O[C@H](CO)[C@@H](O)[C@H](O)[C@@H]3O)[C@@H](O)[C@H](O)[C@@H]2O)nn1)C(=O)N[C@@H](CCCCn1cc(CO[C@H]2O[C@H](CO[C@H]3O[C@H](CO)[C@@H](O)[C@H](O)[C@@H]3O)[C@@H](O)[C@H](O)[C@@H]2O)nn1)C(=O)N[C@@H](CCCCn1cc(CO[C@H]2O[C@H](CO[C@H]3O[C@H](CO)[C@@H](O)[C@H](O)[C@@H]3O)[C@@H](O)[C@H](O)[C@@H]2O)nn1)C(=O)N[C@@H](CCCCn1cc(CO[C@H]2O[C@H](CO[C@H]3O[C@H](CO)[C@@H](O)[C@H](O)[C@@H]3O)[C@@H](O)[C@H](O)[C@@H]2O)nn1)C(=O)NCC(=O)N[C@@H](CCCCN)C(N)=O [D6],no increase in binding,6.56 ± 1.2,rapidly internalized,internalized rapidly,50,
CC(=O)N[C@@H](CCCCn1cc(CO[C@H]2O[C@H](CO)[C@@H](O)[C@H](O)[C@@H]2O)nn1)C(=O)N[C@@H](CCCCn1cc(CO[C@H]2O[C@H](CO)[C@@H](O)[C@H](O)[C@@H]2O)nn1)C(=O)N[C@@H](CCCCn1cc(CO[C@H]2O[C@H](CO)[C@@H](O)[C@H](O)[C@@H]2O)nn1)C(=O)N[C@@H](CCCCn1cc(CO[C@H]2O[C@H](CO)[C@@H](O)[C@H](O)[C@@H]2O)nn1)C(=O)N[C@@H](CCCCn1cc(CO[C@H]2O[C@H](CO)[C@@H](O)[C@H](O)[C@@H]2O)nn1)C(=O)N[C@@H](CCCCn1cc(CO[C@H]2O[C@H](CO)[C@@H](O)[C@H](O)[C@@H]2O)nn1)C(=O)NCC(=O)N[C@@H](CCCCN)C(N)=O [A6],significantly higher binding,7.82 ± 0.44,,,,
CC(=O)N[C@@H](CCCCn1cc(CO[C@H]2O[C@H](CO)[C@@H](O)[C@H](O[C@H]3O[C@H](CO)[C@@H](O)[C@H](O)[C@@H]3O)[C@@H]2O)nn1)C(=O)NCC(=O)N[C@@H](CCCCn1cc(CO[C@H]2O[C@H](CO)[C@@H](O)[C@H](O[C@H]3O[C@H](CO)[C@@H](O)[C@H](O)[C@@H]3O)[C@@H]2O)nn1)C(=O)NCC(=O)N[C@@H](CCCCn1cc(CO[C@H]2O[C@H](CO)[C@@H](O)[C@H](O[C@H]3O[C@H](CO)[C@@H](O)[C@H](O)[C@@H]3O)[C@@H]2O)nn1)C(=O)NCC(=O)N[C@@H](CCCCN)C(N)=O [C3],,,,,,171.9 ± 1.45
